Measurements published in PMC467089, “Click estradiol dimers with novel aromatic bridging units: synthesis and anticancer evaluation” (Journal of Enzyme Inhibition and Medicinal Chemistry, 2024).

Legend:
[1] = test system: CCRF-CEM (childhood T-cell acute lymphoblastic leukaemia); assay: MTS cytotoxicity assay, CCRF-CEM; assay type: cell-based; conditions: Homo sapiens, 72 h, read-out: IC50 cytotoxic activity CCRF-CEM
Method: (§1) The p53 deficient variant, HCT116p53−/−, was purchased from Horizon Discovery (Cambridge, UK). The daunorubicin-resistant CCRF-CEM cell line CEM-DNR bulk and paclitaxel-resistant K562-TAX sublines were developed in-house by exposing parental cell lines to escalating concentrations of daunorubicin and paclitaxel, respectively. Cells were maintained in the recommended culture medium (Sigma-Aldrich, St. Louis, MO) supplemented with 10% foetal calf serum, 100 U/mL penicillin, and 100 μg/mL streptomycin. The HUVEC line was obtained from PromoCell (Heidelberg, Germany). The cells were cultured in endothelial cell growth medium with SupplementMix for endothelial cells (PromoCell, Heidelberg, Germany). The incubation conditions were a humidified atmosphere of 95% air and 5% CO2 at 37 °C[10]. Cells were seeded in 384-well plates and after overnight incubation treated with compounds. All tested compounds were dissolved in 100% DMSO, and fourfold serial dilutions were performed using an Echo550 liquid handler (Labcyte, San Jose, CA). The experiments were performed in technical duplicates and three biological replicates. Cells were incubated with compounds for 72 h and thereafter 5 μL of MTS reagent was added to each well.

[2] = test system: CEM-DNR (daunorubicin resistant variant of CCRF-CEM); assay: MTS cytotoxicity assay, CEM-DNR; assay type: cell-based, human; conditions: Homo sapiens, CEM-DNR, 72 h, read-out: IC50 cytotoxic activity CEM-DNR
Method in brief: (§2)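 Overnight-seeded cells → fourfold serial compound dilutions (DMSO) → 72 h, 37 °C, 5% CO2 → MTS added. Duplicates ×3 biological reps.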

[3] = test system: K562 (chronic myelogenous leukaemia); assay: MTS cytotoxicity assay, K562; assay type: cell-based; conditions: Homo sapiens, K562, 72 h, read-out: IC50 cytotoxic activity K562
Method in brief: as §2

[4] = test system: K562-TAX (paclitaxel-resistant variant of K562); assay: MTS cytotoxicity assay, K562-TAX; assay type: cell-based, human; conditions: Homo sapiens, K562-Tax, 72 h, read-out: IC50 cytotoxic activity K562-TAX
Method in brief: as §2

[5] = test system: A549 (lung adenocarcinoma); assay: MTS cytotoxicity assay, A549; assay type: cell-based, human; conditions: Homo sapiens, A549, 72 h, read-out: IC50 cytotoxic activity A549
Method in brief: as §2

[6] = test system: HCT116 (colorectal adenocarcinoma); assay: MTS cytotoxicity assay, HCT116; assay type: cell-based; conditions: Homo sapiens, HCT-116, 72 h, read-out: IC50 cytotoxic activity HCT116
Method in brief: as §2

[7] = test system: HCT116p53−/− (p53 gene null variant of HCT116); assay: MTS cytotoxicity assay, HCT116p53−/−; assay type: cell-based; conditions: Homo sapiens, HCT-116, 72 h, read-out: IC50 cytotoxic activity HCT116p53-
Method in brief: as §2

[8] = test system: U2OS (osteosarcoma); assay: MTS cytotoxicity assay, U2OS; assay type: cell-based, human; conditions: Homo sapiens, U2OS, 72 h, read-out: IC50 cytotoxic activity U2OS
Method in brief: as §2

[9] = MTS cytotoxicity assay, MRC-5; assay type: cell-based; conditions: human
Method in brief: as §2

[10] = MTS cytotoxicity assay, BJ; assay type: cell-based; conditions: human
Method in brief: as §2

[11] = MTS cytotoxicity assay, HUVEC; assay type: cell-based; conditions: human
Method: as §1

[12] = biological target: T1, porcine brain tubulin (Sus scrofa, UniProt P02550+P02554); assay: Tubulin polymerisation assay; assay type: biochemical; conditions: 10 μmol/L, Vmax relative to DMSO
T1 construct: purchased Cytoskeleton, Denver, CO; host or cells: porcine brain (tissue-purified)
T1 sequence (P02550 whole entry): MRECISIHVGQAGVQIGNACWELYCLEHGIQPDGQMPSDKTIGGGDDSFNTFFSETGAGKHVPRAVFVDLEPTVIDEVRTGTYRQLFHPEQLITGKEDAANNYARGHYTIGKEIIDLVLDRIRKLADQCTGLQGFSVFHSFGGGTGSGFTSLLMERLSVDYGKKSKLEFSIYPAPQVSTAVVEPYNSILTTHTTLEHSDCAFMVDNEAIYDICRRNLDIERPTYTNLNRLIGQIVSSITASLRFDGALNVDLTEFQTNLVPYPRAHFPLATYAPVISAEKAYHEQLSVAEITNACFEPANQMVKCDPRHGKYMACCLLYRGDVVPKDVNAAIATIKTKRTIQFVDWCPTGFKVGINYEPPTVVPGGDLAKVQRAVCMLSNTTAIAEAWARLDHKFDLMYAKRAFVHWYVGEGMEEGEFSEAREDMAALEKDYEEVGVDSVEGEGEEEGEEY
T1 sequence (P02554 whole entry): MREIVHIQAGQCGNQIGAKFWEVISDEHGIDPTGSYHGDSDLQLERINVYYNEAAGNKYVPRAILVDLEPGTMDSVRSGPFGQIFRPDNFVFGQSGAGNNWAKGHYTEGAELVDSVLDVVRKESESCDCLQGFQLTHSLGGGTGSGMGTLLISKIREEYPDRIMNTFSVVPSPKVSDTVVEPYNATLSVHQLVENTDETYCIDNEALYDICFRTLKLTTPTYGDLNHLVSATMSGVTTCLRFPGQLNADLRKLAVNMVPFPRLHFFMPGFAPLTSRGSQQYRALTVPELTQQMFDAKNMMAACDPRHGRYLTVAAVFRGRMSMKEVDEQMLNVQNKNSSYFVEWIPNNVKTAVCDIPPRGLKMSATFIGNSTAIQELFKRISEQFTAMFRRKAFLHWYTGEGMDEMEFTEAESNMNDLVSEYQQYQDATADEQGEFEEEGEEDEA
Method in brief: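 Polymerisation of >99% pure porcine brain tubulin followed at 37 °C with a commercial kit, with test compounds at 10 μmol/L or DMSO. Maximum polymerisation velocity (Vmax) derived from the polymerisation curves.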

[13] = test system: CCRF-CEM lymphoblasts; assay: Cell cycle analysis by flow cytometry (propidium iodide); assay type: cell-based, human
Method: (§3) To further characterise the mode of action of studied compounds, we analysed the cell cycle profile of CCRF-CEM cells treated with compounds for 24 h. […] The compounds ED1–ED9 and ED12 induced arrest in G2/M phase of the cell cycle (Figure 2(A)). To differentiate between G2 block and mitotic arrest, we used phospho-histone H3 (Ser10) mitotic marker (Figure 2(B)). […] Generally, dimers induced a dose-dependent increase of sub G1 cell population with fragmented DNA except for ED2 and ED4 (Figure 2(C)). […] To assess the proliferation of treated cells, they were subjected to 5-bromo-2-deoxyuridine (BrDU) labelling. […] Analogously, changes in 5-bromouridine (BrU) incorporation were examined to monitor overall RNA synthesis.
(§4) Treated CCRF-CEM cells were harvested, washed with ice-cold phosphate-buffered saline (PBS), fixed in cold 70% ethanol and stored at −20 °C. Prior to analysis, fixed cells were permeabilised with 0.25% Triton X-100 in PBS for 15 min, blocked in 1% bovine serum, and incubated with anti-phospho-Histone H3 (Ser^10) antibody (Merck Millipore, Burlington, MA). Subsequently, the cells were treated with 50 μg/mL RNAse, stained with propidium iodide and analysed by FACSCalibur (Becton Dickinson, Franklin Lakes, NJ) flow cytometer at 488 nm. Cell cycle distribution (G1, S, and G2/M) was analysed using ModFitLT software (Verity, Topsham, ME), and reflects only viable population prior to the fixing procedure. Particles with lower propidium iodide content than G1 phase cells were classified as non-viable cells with fragmented DNA. Flow cytometry data visualisation was performed using OriginPro 2018b (b9.5.5.409) software (OriginLab Corporation, Northampton, MA)[10].

[14] = test system: CCRF-CEM lymphoblasts; assay: Phospho-histone H3 (Ser10) mitotic marker, flow cytometry; assay type: cell-based, human
Method: as §3, §4

[15] = test system: CCRF-CEM lymphoblasts; assay: BrDU incorporation analysis (DNA synthesis); assay type: cell-based, human
Method: as §3
Thirty minutes before harvesting, cells were pulse-labelled with 10 μM BrDU. After overnight fixation in ice-cold 70% ethanol, cells were resuspended in 2 M HCl for 30 min at room temperature (RT), then washed with 0.1 M Na2B4O7 and blocked with PBS containing 0.5% Tween-20 and 1% BSA. BrDU incorporation was analysed using anti-BrdU antibody clone MoBu-1 (Exbio, Vestec, Czech Republic) and a secondary anti-mouse-FITC antibody (Sigma-Aldrich, St. Louis, MO). Cells were washed with PBS and stained with 0.1 mg/mL propidium iodide and 0.5 mg/mL RNase A for 1 h at RT and analysed by flow cytometry using a 488 nm single beam laser (FACSCalibur, Becton Dickinson, Franklin Lakes, NJ). The percentage of cells with incorporated BrDU was analysed using CellQuest software.

[16] = test system: CCRF-CEM lymphoblasts; assay: BrU incorporation analysis (RNA synthesis); assay type: cell-based, human
Method: as §3
Prior to the trypsinisation, cells were treated with 1 mM BrU for 30 min. Subsequently, the cells were fixed in 1% paraformaldehyde with 0.05% of NP-40 for 15 min at RT and stored overnight at 4 °C. Fixed cells were washed with 1% glycine in PBS and stained with primary anti-BrdU antibody clone MoBu-1 crossreacting with BrU (Exbio, Vestec, Czech Republic) for 30 min at RT, washed with PBS and labelled with secondary anti-mouse-FITC antibody (Sigma-Aldrich, St. Louis, MO). Following 1-h incubation in 1% paraformaldehyde containing 0.05% NP-40, cells were stained with propidium iodide (0.1 mg/mL) and treated with RNase A (0.5 mg/mL) for 1 h at RT. The percentage of BrU positive cells was quantified using CellQuest software.

| Compound | IC50 [1] | IC50 [2] | IC50 [3] | IC50 [4] | IC50 [5] | IC50 [6] | IC50 [7] | IC50 [8] | IC50 at 72 h [9] | IC50 at 72 h [10] | IC50 at 72 h [11] | inhibitory activity against tubulin polymerisation (in words) [12] | <G1 (sub-G1, fragmented DNA), % of positive cells ([13]; 1×IC50, 24 h) | >G2/M (polyploidy), % of positive cells ([13]; 1×IC50, 24 h) | G0/G1, % of positive cells ([13]; 1×IC50, 24 h) | G2/M, % of positive cells ([13]; 1×IC50, 24 h) | S, % of positive cells ([13]; 1×IC50, 24 h) | <G1 (sub-G1, fragmented DNA), % of positive cells ([13]; 5×IC50, 24 h) | >G2/M (polyploidy), % of positive cells ([13]; 5×IC50, 24 h) | G0/G1, % of positive cells ([13]; 5×IC50, 24 h) | further results |
| --- | --- | --- | --- | --- | --- | --- | --- | --- | --- | --- | --- | --- | --- | --- | --- | --- | --- | --- | --- | --- | --- |
| Cc1cc(Cn2cc([C@]3(O)CC[C@H]4[C@@H]5CCc6cc(O)ccc6[C@H]5CC[C@@]43C)nn2)c(O)c(Cn2cc([C@]3(O)CC[C@H]4[C@@H]5CCc6cc(O)ccc6[C@H]5CC[C@@]43C)nn2)c1 [ED6, (17β,17′β)-17,17′-[(2-Hydroxy-5-methylbenzene-1,3-diyl)bis(methanediyl-1H-1,2,3-triazole-1,4-diyl)]bisestra-1,3,5(10)-triene-3,17-diol] | 1.54 ± 0.25 µM | > 50 µM | 1.39 ± 0.21 µM | > 50 µM | 8.6 ± 2.22 µM | 1.74 ± 0.11 µM | 1.87 ± 0.13 µM | 5.06 ± 1.68 µM | > 50 µM | > 50 µM | < 0.0122 µM | comparable or better inhibitory activity | 11.43% | 6.19% | 32.46% | 29.74% | 37.81% | 36.87% | 9.85% | 8.21% | G2/M, % of positive cells ([13]; 5×IC50, 24 h): 73.29%; S, % of positive cells ([13]; 5×IC50, 24 h): 18.50%; pH3Ser10, % of positive cells ([14]; 1×IC50, 24 h): 9.07%; pH3Ser10, % of positive cells ([14]; 5×IC50, 24 h): 0.76%; BrDU, % of positive cells ([15]; 1×IC50, 24 h): 37.25%; BrDU, % of positive cells ([15]; 5×IC50, 24 h): 7.83%; RNA synthesis, BrU incorporation (in words) ([16]; 1× and 5×IC50, 24 h, gated remaining live cells): high rate of RNA synthesis; BrU, % of positive cells ([16]; 1×IC50, 24 h): 67.97%; BrU, % of positive cells ([16]; 5×IC50, 24 h): 39.43% |
| CC(=O)Oc1c(Cn2cc([C@]3(O)CC[C@H]4[C@@H]5CCc6cc(O)ccc6[C@H]5CC[C@@]43C)nn2)cc(C)cc1Cn1cc([C@]2(O)CC[C@H]3[C@@H]4CCc5cc(O)ccc5[C@H]4CC[C@@]32C)nn1 [ED7, 2,6-Bis({4-[(17β)-3,17-dihydroxyestra-1,3,5(10)-trien-17-yl]-1H-1,2,3-triazol-1-yl}methyl)-4-methylphenyl acetate] | 1.29 ± 0.13 µM | > 50 µM | 0.77 ± 0.13 µM | > 50 µM | > 50 µM | 1.61 ± 0.087 µM | 1.79 ± 0.17 µM | 3.86 ± 1.39 µM | > 50 µM | > 50 µM | 0.014 ± 0.002 µM | comparable or better inhibitory activity | 40.74% | 7.12% | 32.36% | 33.76% | 33.88% | 45.33% | 7.43% | 32.48% | G2/M, % of positive cells ([13]; 5×IC50, 24 h): 32.87%; S, % of positive cells ([13]; 5×IC50, 24 h): 34.65%; pH3Ser10, % of positive cells ([14]; 1×IC50, 24 h): 0.68%; pH3Ser10, % of positive cells ([14]; 5×IC50, 24 h): 11.22%; BrDU, % of positive cells ([15]; 1×IC50, 24 h): 9.50%; BrDU, % of positive cells ([15]; 5×IC50, 24 h): 5.65%; BrU, % of positive cells ([16]; 1×IC50, 24 h): 52.67%; BrU, % of positive cells ([16]; 5×IC50, 24 h): 27.20% |
